Results on three molecules are retold here after US5578619A, “Alkoxy-substituted dihydrobenzopyran-2-sulfonimides” (priority 1995, dated 1996).

Each structure is given as a SMILES string. pIC50: −log10 of the molar value.

The target of experiment [1] is T1, LTB4 Receptor (Homo sapiens, UniProt Q15722).
T1 construct: Neutrophils were purified from venous blood of normal human donors; endogenous in cells; host or cells: human neutrophils from venous blood of normal donors (purity >95%)
Briefly: LTB4 Receptor Binding Assay. The following applies: human neutrophils, 0.6×10^-9 M (3H)LTB4, 0° C., 45 minutes. The protocol: Neutrophils were purified from venous blood of normal human donors using standard techniques of dextran sedimentation, centrifugation on Ficoll-paque® (Pharmacia) or Histopaque® sterile solution (Sigma) and hypotonic lysis of erythrocytes (Boyum, A., Isolation of Leukocytes From Human Blood: Further Observations. Scand. J. Lab. Clin. Invest., 21 (Suppl. 97): 31, 1968).
Neutrophils (4- 6×10^6) in 1 ml Hanks' balanced salt solution (HBSS) containing 10 mM HEPES buffer, pH 7.4 and 20 mM nordihydroguaiaretic acid were incubated with 0.6×10^-9 M (^3 H) LTB4 in the presence or absence of test compounds. The incubation was carried out at 0° C. for 45 minutes and terminated by adding 5 ml of ice-cold HBSS followed by rapid filtration of the incubation mixture under vacuum through GF/C glass fiber filters. The filters were further washed with 10 ml HBSS and radioactivity was determined. Specific binding was defined as the difference between total binding and nonspecific binding which was not displaced by 10^-7 M unlabeled LTB4. All data refer to specific binding.

The subject of experiment [2] is Human neutrophils (LTB4 chemotaxis). Briefly: Modified Boyden Chamber Chemotaxis (LTB4-induced neutrophil chemotaxis). In kind it is cell-based. Conditions: 3×10^-8 M LTB4, 40-90 minute incubation at 37° C. An excerpt:
Neutrophils were purified from venous blood of normal human donors using standard techniques of dextran sedimentation, centrifugation on Ficoll-paque® (Pharmacia) or Histopaque® sterile solution (Sigma) and hypotonic lysis of erythrocytes (Boyum, A., Isolation of Leukocytes From Human Blood: Further Observations. Scand. J. Lab. Clin. Invest., 21 (Suppl. 97): 31, 1968). The purity of isolated neutrophils was >95%.
Human neutrophils were isolated from citrated peripheral blood using standard techniques of dextran sedimentation, followed by centrifugation on Histopaque® sterile solution (Sigma) or Ficoll-paque® (Pharmacia) and hypotonic lysis of erythrocytes. A final cell suspension of 3.4×10^6 neutrophils/ml of HEPES-buffered Hanks' balanced salt solution (HBSS, pH 7.3) was added to the upper well (0.8 ml) of a modified Boyden chamber (blind well). The lower well (0.2 ml), separated by a polycarbonate membrane (Nucleopore Corp.), contained HBSS or 3×10^-8 M LTB4 in the presence or absence of test compound. Following a 40-90 minute incubation at 37° C. in 5% CO2 -95% air, cells from the lower well were lysed and nuclei counted in a Model S-Plus-IV Coulter Counter. The number of neutrophils migrating into the lower chamber in the absence of chemoattractant was subtracted from the number of cells migrating in the presence of a chemoattractant. Inhibition of chemotaxis by test compounds was expressed as percent inhibition relative to uninhibited control.

T1 sequence (Q15722 whole entry): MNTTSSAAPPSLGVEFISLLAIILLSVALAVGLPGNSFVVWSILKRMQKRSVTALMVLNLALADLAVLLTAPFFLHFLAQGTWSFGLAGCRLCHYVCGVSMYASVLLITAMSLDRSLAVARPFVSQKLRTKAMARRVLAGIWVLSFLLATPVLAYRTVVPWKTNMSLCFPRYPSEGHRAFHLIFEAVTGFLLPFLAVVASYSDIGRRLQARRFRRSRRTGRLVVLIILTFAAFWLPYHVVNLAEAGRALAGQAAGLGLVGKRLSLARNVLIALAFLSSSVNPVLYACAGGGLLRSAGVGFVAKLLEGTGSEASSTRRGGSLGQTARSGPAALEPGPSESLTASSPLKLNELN

By pIC50 is commonly meant the IC50 on a negative log10 scale, so that one unit is a factor of ten. High values mean a small IC50, low ones a large IC50. For the molecule `CCCc1c(OCCCOc2ccc(-c3cscn3)c(OC)c2CC2CC2)ccc2c1OC(CCC(=O)NS(=O)(=O)c1ccccc1)CC2` (centres unmarked) [Example 15, Benzo sulfonimide of 3,4-Dihydro-7-[3-[3-methoxy-2-cycloproplymethyl-4-(4-thiazolyl)phenoxy]propoxy]-8-propyl-2H-1-benzopyran-2-propionic acid], the figures for the pIC50 in experiment [1] and in experiment [2] were 8.37 and 7.18, respectively.

Take `CCCc1c(OCCCOc2ccc(-c3cscn3)c(OC)c2CC2CC2)ccc2c1OC(C(=O)NS(=O)(=O)c1ccccc1)CC2` (centres unmarked) [Example 9, Benzo sulfonimide of 7-[3-[2-(Cyclopropylmethyl)-3-methoxy-4-(4-thiazolyl)phenoxy]propoxy]-3,4-dihydro-8-propyl-2H-1-benzopyran-2-carboxylic acid]: the pIC50 was 8.26 in experiment [1] and 7.28 in experiment [2]. On to `CCCc1c(OCCCOc2ccc(C(C)=O)c(OC)c2CCC)ccc2c1OC(C(=O)O)CC2` (centres unmarked) [Example 1(b), 7-[3-(4-acetyl-3-methoxy-2-propylphenoxy)propoxy]-3,4-dihydro-8-propyl-2H-1-benzopyran-2-carboxylic acid, reference compound], for which, in experiment [2], the negative logarithm of the IC50 (pIC50) is 5.98.
